# According to ChEMBL document CHEMBL4765241, “Identification and Preclinical Pharmacology of ((1 R,3 S)-1-Amino-3-(( S)-6-(2-methoxyphenethyl)-5,6,7,8-tetrahydronaphthalen-2-yl)cyclopentyl)methanol (BMS-986166): A Differentiated Sphingosine-1-phosphate Receptor 1 (S1P) Modulator Advanced into Clinical Trials” (J Med Chem, 2019):
# Assays:
# [1] = system: Rattus norvegicus; assay: Reduction in circulating lymphocytes in Lewis rat blood at 2 mg/kg, po measured at 24 hrs by hematology analyzer based analysis; type: functional; design: scale not given: the % may be the effect or the level left
# [2] = system: Rattus norvegicus; assay: Reduction in circulating lymphocytes in Lewis rat blood at 2 mg/kg, po measured at 4 hrs by hematology analyzer based analysis; type: functional; design: scale not given: the % may be the effect or the level left
# [3] = Drug metabolism in pH 7.4 Tris-HCl buffer assessed as amount of phosphate ester metabolite formation at […] in presence of sphingosine kinase 1,2 and Mg-ATP incubated for 30 mins by TLC based analysis relative to fingolimod
# [4] = Ratio of drug metabolism in Lewis rat blood assessed as phosphate ester metabolite to parent drug at 2 mg/kg, po measured at 24 hrs by LC-MS/MS analysis; type: ADME, organism-based; conditions: in vivo
# [5] = Half-life in Lewis rat at 2 mg/kg, po measured over 72 hrs by LC-MS/MS analysis; type: ADME, organism-based; conditions: in vivo
# [6] = Drug metabolism in Lewis rat blood assessed as concentration of parent compound at 2 mg/kg, po measured at 4 hrs by LC-MS/MS analysis; type: ADME, organism-based; conditions: read-out: Ct
# [7] = Drug metabolism in Lewis rat blood assessed as concentration of parent compound at 2 mg/kg, po measured at 24 hrs by LC-MS/MS analysis; type: ADME, organism-based; conditions: read-out: Ct
# [8] = system: Rattus norvegicus; assay: Drug metabolism in Lewis rat blood assessed as concentration of phosphate ester metabolite formation at 2 mg/kg, po measured at 4 hrs by LC-MS/MS analysis; conditions: in vivo
# [9] = Drug metabolism in Balb/c mouse blood assessed as concentration of parent compound at 30 mg/kg, po measured at 4 hrs by LC-MS/MS analysis; type: ADME, organism-based; conditions: read-out: Ct
# [10] = Ratio of drug metabolism in Balb/c mouse blood assessed as phosphate ester metabolite to parent drug at 30 mg/kg, po measured at 24 hrs by LC-MS/MS analysis; type: ADME, organism-based; conditions: in vivo
# [11] = Drug metabolism in Balb/c mouse blood assessed as concentration of parent compound at 30 mg/kg, po measured at 24 hrs by LC-MS/MS analysis; type: ADME, organism-based; conditions: in vivo, 30 mg/kg, 24 h, 30 mg/kg, 24 h, read-out: Ct
# [12] = system: Mus musculus; assay: Reduction in circulating lymphocytes in Balb/c mouse blood at 30 mg/kg, po measured at 4 hrs by hematology analyzer based analysis; type: functional; design: scale not given: the % may be the effect or the level left; conditions: 30 mg/kg, 4 h
# [13] = system: Mus musculus; assay: Reduction in circulating lymphocytes in Balb/c mouse blood at 30 mg/kg, po measured at 24 hrs by hematology analyzer based analysis; type: functional; design: scale not given: the % may be the effect or the level left; conditions: 30 mg/kg, 24 h
# [14] = Drug metabolism in Balb/c mouse blood assessed as phosphate ester metabolite formation at 30 mg/kg, po measured at 4 hrs by LC-MS/MS analysis; type: ADME, organism-based; conditions: in vivo
# [15] = Drug metabolism in Balb/c mouse blood assessed as concentration of parent compound at 1 mg/kg, po measured at 4 hrs by LC-MS/MS analysis; type: ADME, organism-based; conditions: read-out: Ct; for concentration: in vivo, 1 mg/kg, 4 h
# [16] = Drug metabolism in Balb/c mouse blood assessed as concentration of parent compound at 1 mg/kg, po measured at 24 hrs by LC-MS/MS analysis; type: ADME, organism-based; conditions: read-out: Ct; for concentration at 24 h: Balb/c, blood
# [17] = system: Mus musculus; assay: Reduction in circulating lymphocytes in Balb/c mouse blood at 1 mg/kg, po measured at 24 hrs by hematology analyzer based analysis; type: functional; design: scale not given: the % may be the effect or the level left
# [18] = Drug metabolism in Balb/c mouse blood assessed as concentration of phosphate ester metabolite formation at 30 mg/kg, po measured at 24 hrs by LC-MS/MS analysis; type: ADME, organism-based; conditions: in vivo
# [19] = Drug metabolism in Balb/c mouse blood assessed as concentration of phosphate ester metabolite formation at 1 mg/kg, po measured at 24 hrs by LC-MS/MS analysis; type: ADME, organism-based; conditions: in vivo, BLD = below limit of detection
# [20] = Drug metabolism in Balb/c mouse blood assessed as concentration of phosphate ester metabolite formation at 1 mg/kg, po measured at 4 hrs by LC-MS/MS analysis; type: ADME, organism-based; conditions: in vivo
# [21] = system: Mus musculus; assay: Reduction in circulating lymphocytes in Balb/c mouse blood at 1 mg/kg, po measured at 4 hrs by hematology analyzer based analysis; type: functional; design: scale not given: the % may be the effect or the level left
# [22] = Cardiotoxicity in human iPSC derived cardiomyocytes assessed as reduction in beating rate at 1 nM measured over 2 hrs by multi-electrode array relative to control; type: toxicity, cell-based; design: scale not given: the % may be the effect or the level left; conditions: stem cell-derived cardiomyocyte, 0.001 µM
# [23] = Cardiotoxicity in human iPSC derived cardiomyocytes assessed as reduction in beating rate at 10 nM measured over 2 hrs by multi-electrode array relative to control; type: toxicity, cell-based; design: scale not given: the % may be the effect or the level left; conditions: stem cell-derived cardiomyocyte, 0.01 µM
# [24] = Pulmonary toxicity in Lewis rat assessed as elevation of BAL protein level at 3 mg/kg by advia1800 chemistry analyzer; type: organism-based; conditions: in vivo
# [25] = Pulmonary toxicity in Lewis rat assessed as elevation of BAL protein level at 10 mg/kg by advia1800 chemistry analyzer; type: organism-based; conditions: in vivo
# [26] = system: Rattus norvegicus; assay: Reduction in circulating lymphocytes in Lewis rat blood assessed as effective dose after oral dosing measured at 24 hrs by hematology analyzer based analysis; type: functional
# [27] = Drug metabolism in Balb/c mouse blood assessed as concentration of parent compound at 50 mg/kg, po measured at 24 hrs by LC-MS/MS analysis; type: ADME, organism-based; conditions: read-out: Ct
# [28] = Drug metabolism in Balb/c mouse blood assessed as concentration of parent compound at 50 mg/kg, po measured at 4 hrs by LC-MS/MS analysis; type: ADME, organism-based; conditions: read-out: Ct
# [29] = Drug metabolism in Balb/c mouse blood assessed as concentration of phosphate ester metabolite formation at 50 mg/kg, po measured at 24 hrs by LC-MS/MS analysis; type: ADME, organism-based; conditions: in vivo
# [30] = Ratio of drug metabolism in Balb/c mouse blood assessed as phosphate ester metabolite to parent drug at 30 mg/kg, po measured at 24 hrs by LC-MS/MS analysis; conditions: in vivo
# [31] = system: Mus musculus; assay: Reduction in circulating lymphocytes in Balb/c mouse blood at 50 mg/kg, po measured at 24 hrs by hematology analyzer based analysis; type: functional; design: scale not given: the % may be the effect or the level left
# [32] = Drug metabolism in Balb/c mouse blood assessed as concentration of phosphate ester metabolite formation at 50 mg/kg, po measured at 4 hrs by LC-MS/MS analysis; type: ADME, organism-based; conditions: in vivo
# [33] = system: Mus musculus; assay: Reduction in circulating lymphocytes in Balb/c mouse blood at 50 mg/kg, po measured at 4 hrs by hematology analyzer based analysis; type: functional; design: scale not given: the % may be the effect or the level left
compound,measurement,setting,value
COc1cccc(CC2CCc3cc([C@H]4CC[C@](N)(CO)C4)ccc3C2)c1 (stereo in doubt; 12b),Activity,"[1]; 2 mg/kg, 24 h",45%
same,Activity,"[2]; 2 mg/kg, 4 h",<10%
N[C@]1(CO)CC[C@H](c2ccc3c(c2)CC[C@H](CCc2ccccn2)C3)C1,Drug metabolism,[3],1.8%
COc1ccc(CC2CCc3cc([C@H]4CC[C@](N)(CO)C4)ccc3C2)cc1 (stereo in doubt; 13b),Activity,"[1]; 2 mg/kg, 24 h",73%
same,Ratio,[4],1.3
same,half-life,[5],64 h
same,concentration at 4 h,[6],90 nM
same,concentration at 24 h,[7],60 nM
same,Drug metabolism,[8],50 nM
N[C@]1(CO)CC[C@H](c2ccc3c(c2)CCC(c2ccccc2)C3)C1 (stereo in doubt; 8b),concentration,"[9]; in vivo, 30 mg/kg, 4 h, 30 mg/kg, 4 h",750 nM
same,Ratio,[10],0.16
same,concentration,[11],300 nM
same,Activity,[12],72%
same,Activity,[13],84%
same,Drug metabolism,[14],36 nM
same,concentration,[15],16 nM
same,concentration,"[16]; in vivo, 1 mg/kg, 24 h, 1 mg/kg, 24 h",16 nM
same,Activity,"[17]; 1 mg/kg, 24 h",36%
same,Drug metabolism,[18],49 nM
N[C@]1(CO)CC[C@H](c2ccc3c(c2)CC[C@@H](CCc2ncccn2)C3)C1,Drug metabolism,[3],4%
N[C@]1(CO)CC[C@H](c2ccc3c(c2)CCC(c2ccccc2)C3)C1 (stereo in doubt; 8a),concentration at 4 h,"[9]; Balb/c, blood",1500 nM
same,Ratio,[10],0.14
same,concentration,[11],760 nM
same,Activity,[12],67%
same,Activity,[13],88%
same,Drug metabolism,[19],Bld
same,Drug metabolism,[20]; BLD = below limit of detection,Bld
same,Drug metabolism,[14],43 nM
same,Activity,[21],<10%
same,concentration,[15],44 nM
same,concentration at 24 h,[16],27 nM
same,Activity,"[17]; 1 mg/kg, 24 h",<10%
same,Drug metabolism,[18],110 nM
COc1cccc(CC[C@H]2CCc3cc([C@H]4CC[C@](N)(COP(=O)(O)O)C4)ccc3C2)c1,Activity,[22],23%
same,Activity,[23],20%
COc1cccc(CC[C@@H]2CCc3cc([C@H]4CC[C@](N)(CO)C4)ccc3C2)c1,Activity,[1],84%
same,Activity,[24],10 mg/dL
same,Ratio,[4],6.3
same,half-life,[5],31 h
same,concentration at 4 h,[6],90 nM
same,concentration at 24 h,[7],80 nM
same,Activity,[25],12.7 mg/dL
same,Activity,[2],69%
same,ED50,[26],0.05 mg/kg
same,Drug metabolism,[8],160 nM
Cn1ccc(CC[C@@H]2CCc3cc([C@H]4CC[C@](N)(CO)C4)ccc3C2)n1,Drug metabolism,[3],8%
N[C@]1(CO)CC[C@H](c2ccc3c(c2)CC[C@H](CCc2ncccn2)C3)C1,Drug metabolism,[3],6%
Cn1cncc1CCC1CCc2cc([C@H]3CC[C@](N)(CO)C3)ccc2C1 (stereo partly specified),Drug metabolism,[3],5%
Cn1cc(CC[C@@H]2CCc3cc([C@H]4CC[C@](N)(CO)C4)ccc3C2)cn1,Drug metabolism,[3],6%
COc1ccccc1CC[C@H]1CCc2cc([C@H]3CC[C@](N)(COP(=O)(O)O)C3)ccc2C1,Activity,[22],17%
same,Activity,[23],18%
"N[C@]1(CO)CC[C@H](c2ccc3c(c2)CCC(CCc2ccncc2)C3)C1 (single isomer, unassigned)",Drug metabolism,[3],0%
COc1ccccc1CC1CCc2cc([C@H]3CC[C@](N)(CO)C3)ccc2C1 (stereo partly specified),Activity,[1],13%
same,Activity,[2],<10%
COc1ccnc(CC[C@H]2CCc3cc([C@H]4CC[C@](N)(CO)C4)ccc3C2)c1,Drug metabolism,[3],3%
N[C@]1(CO)CC[C@H](c2ccc3c(c2)CC[C@@H](CCc2cccnc2)C3)C1,Drug metabolism,[3],3%
N[C@]1(CO)CC[C@H](c2ccc3c(c2)CC[C@@H](CCc2ccccn2)C3)C1,Drug metabolism,[3],4%
N[C@]1(CO)CC[C@H](c2ccc3c(c2)CC[C@@H](Cc2ccccc2)C3)C1,concentration at 24 h,[27],530 nM
same,concentration at 4 h,[28],2400 nM
same,Drug metabolism,[29],750 nM
same,Drug metabolism,[19],Bld
same,Drug metabolism,[20],5.6 nM
same,Activity,[21],<10%
same,Ratio,[30],1.4
same,concentration at 4 h,"[15]; Balb/c, blood",12 nM
same,Activity,[31],84%
same,concentration at 24 h,[16],5.6 nM
same,Drug metabolism,[32],1100 nM
same,Activity,[33],82%
same,Activity,[17],<10%
COc1ccc(CC2CCc3cc([C@H]4CC[C@](N)(CO)C4)ccc3C2)cc1 (stereo in doubt; 13a),Activity,"[1]; 2 mg/kg, 24 h",52%
same,Activity,[2],<10%
COc1cccc(CC2CCc3cc([C@H]4CC[C@](N)(CO)C4)ccc3C2)c1 (stereo in doubt; 12a),Activity,"[1]; 2 mg/kg, 24 h",73%
same,Ratio,[4],1
same,half-life,[5],15 h
same,concentration at 4 h,[6],50 nM
same,concentration at 24 h,[7],20 nM
same,Activity,"[2]; 2 mg/kg, 4 h",30%
same,Drug metabolism,[8],10 nM
N[C@]1(CO)CC[C@H](c2ccc3c(c2)CC[C@H](CCc2ccccc2)C3)C1,Activity,[1],78%
same,Ratio,[4],1.2
same,half-life,[5],> 75 h
same,concentration at 4 h,[6],230 nM
same,concentration at 24 h,[7],300 nM
same,Activity,[2],11%
same,Drug metabolism,[8],40 nM
N[C@]1(CO)CC[C@H](c2ccc3c(c2)CC[C@H](CCc2cccnc2)C3)C1,Drug metabolism,[3],24%
COc1ccc(CC[C@@H]2CCc3cc([C@H]4CC[C@](N)(COP(=O)(O)O)C4)ccc3C2)cc1,Activity,[22],27%
same,Activity,[23],35%
COc1cccc(CC[C@@H]2CCc3cc([C@H]4CC[C@](N)(COP(=O)(O)O)C4)ccc3C2)c1,Activity,[22],15%
same,Activity,[23],31%
